# Key:
# [1] = target: T1, Serine/threonine-protein kinase ULK3 (Homo sapiens) (UniProt Q6PHR2); experiment: Inhibition of ULK3 conserved Lys1 (EVVAIKCVAK) in human PBMC at 0.1 uM
# T1 sequence (whole entry): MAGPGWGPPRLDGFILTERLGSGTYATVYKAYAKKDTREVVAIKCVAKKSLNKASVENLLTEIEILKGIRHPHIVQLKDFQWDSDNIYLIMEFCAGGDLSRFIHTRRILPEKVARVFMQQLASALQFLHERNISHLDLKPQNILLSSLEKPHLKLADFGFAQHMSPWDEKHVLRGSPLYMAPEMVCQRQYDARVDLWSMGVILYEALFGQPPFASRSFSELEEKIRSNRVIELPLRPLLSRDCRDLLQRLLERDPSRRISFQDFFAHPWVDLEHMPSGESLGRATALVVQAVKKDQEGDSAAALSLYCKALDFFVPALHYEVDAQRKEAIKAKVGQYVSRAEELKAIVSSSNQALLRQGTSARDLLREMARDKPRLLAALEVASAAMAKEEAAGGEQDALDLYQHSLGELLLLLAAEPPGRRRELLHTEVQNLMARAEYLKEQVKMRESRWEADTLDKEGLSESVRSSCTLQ
# [2] = target: Cyclin-dependent kinase 1 (Homo sapiens) (UniProt P06493); experiment: Inhibition of CDC2 labeling at conserved Lys2 (DLKPQNLLIDDKGTIK) in human PBMC at 0.1 uM
# Sequence of Cyclin-dependent kinase 1 (Homo sapiens) (P06493 whole entry, looked up): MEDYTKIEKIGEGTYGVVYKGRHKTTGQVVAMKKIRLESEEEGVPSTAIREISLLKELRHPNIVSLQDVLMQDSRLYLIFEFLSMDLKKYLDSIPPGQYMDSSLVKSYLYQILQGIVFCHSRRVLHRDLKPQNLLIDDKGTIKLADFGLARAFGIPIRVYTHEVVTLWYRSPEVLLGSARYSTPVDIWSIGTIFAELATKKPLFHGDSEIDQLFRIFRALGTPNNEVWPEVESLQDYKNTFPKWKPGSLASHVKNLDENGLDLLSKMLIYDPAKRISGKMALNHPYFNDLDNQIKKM
# [3] = target: T2, Mitogen-activated protein kinase kinase kinase 6 (Homo sapiens) (UniProt O95382); experiment: Inhibition of MAP3K6 conserved Lys1 (IAIKEIPER) in human PBMC at 1 uM
# T2 sequence (whole entry): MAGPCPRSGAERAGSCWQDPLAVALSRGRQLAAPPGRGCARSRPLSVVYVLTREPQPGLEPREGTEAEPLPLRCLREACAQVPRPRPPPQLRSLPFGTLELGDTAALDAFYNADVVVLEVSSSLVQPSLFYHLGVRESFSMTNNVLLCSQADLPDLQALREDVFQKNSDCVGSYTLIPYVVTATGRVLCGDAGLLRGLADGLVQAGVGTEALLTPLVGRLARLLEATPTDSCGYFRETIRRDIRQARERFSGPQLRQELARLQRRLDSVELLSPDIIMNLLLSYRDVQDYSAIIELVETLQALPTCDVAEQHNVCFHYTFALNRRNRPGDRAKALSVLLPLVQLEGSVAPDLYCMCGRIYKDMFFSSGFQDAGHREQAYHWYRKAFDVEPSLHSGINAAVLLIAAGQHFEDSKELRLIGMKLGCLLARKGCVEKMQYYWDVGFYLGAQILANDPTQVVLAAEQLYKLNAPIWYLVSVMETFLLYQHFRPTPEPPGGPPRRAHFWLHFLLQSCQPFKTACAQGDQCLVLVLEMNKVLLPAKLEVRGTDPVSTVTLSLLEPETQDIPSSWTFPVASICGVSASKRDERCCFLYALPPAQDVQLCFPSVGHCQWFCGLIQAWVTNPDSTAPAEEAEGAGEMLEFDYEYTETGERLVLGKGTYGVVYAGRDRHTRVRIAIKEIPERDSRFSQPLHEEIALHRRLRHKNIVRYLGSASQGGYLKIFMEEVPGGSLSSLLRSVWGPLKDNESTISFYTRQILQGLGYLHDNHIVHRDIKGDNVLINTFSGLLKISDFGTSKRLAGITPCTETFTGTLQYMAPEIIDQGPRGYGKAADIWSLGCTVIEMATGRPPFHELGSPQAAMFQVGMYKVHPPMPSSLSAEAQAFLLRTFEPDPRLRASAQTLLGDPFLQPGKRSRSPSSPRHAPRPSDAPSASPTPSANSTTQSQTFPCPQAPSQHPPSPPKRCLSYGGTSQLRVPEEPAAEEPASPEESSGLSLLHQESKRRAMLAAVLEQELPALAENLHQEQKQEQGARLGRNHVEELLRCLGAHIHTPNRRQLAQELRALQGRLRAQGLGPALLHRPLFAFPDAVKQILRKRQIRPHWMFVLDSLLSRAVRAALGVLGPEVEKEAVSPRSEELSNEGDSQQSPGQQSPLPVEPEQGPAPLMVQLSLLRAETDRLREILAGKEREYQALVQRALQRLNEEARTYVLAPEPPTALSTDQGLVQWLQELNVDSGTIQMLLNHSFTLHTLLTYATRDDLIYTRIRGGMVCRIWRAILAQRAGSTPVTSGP
# [4] = target: T3, Serine/threonine-protein kinase 4 (Homo sapiens) (UniProt Q13043); experiment: Inhibition of MST1 conserved Lys2 (DIKAGNILLNTEGHAK) in human PBMC at 1 uM
# T3 sequence (whole entry): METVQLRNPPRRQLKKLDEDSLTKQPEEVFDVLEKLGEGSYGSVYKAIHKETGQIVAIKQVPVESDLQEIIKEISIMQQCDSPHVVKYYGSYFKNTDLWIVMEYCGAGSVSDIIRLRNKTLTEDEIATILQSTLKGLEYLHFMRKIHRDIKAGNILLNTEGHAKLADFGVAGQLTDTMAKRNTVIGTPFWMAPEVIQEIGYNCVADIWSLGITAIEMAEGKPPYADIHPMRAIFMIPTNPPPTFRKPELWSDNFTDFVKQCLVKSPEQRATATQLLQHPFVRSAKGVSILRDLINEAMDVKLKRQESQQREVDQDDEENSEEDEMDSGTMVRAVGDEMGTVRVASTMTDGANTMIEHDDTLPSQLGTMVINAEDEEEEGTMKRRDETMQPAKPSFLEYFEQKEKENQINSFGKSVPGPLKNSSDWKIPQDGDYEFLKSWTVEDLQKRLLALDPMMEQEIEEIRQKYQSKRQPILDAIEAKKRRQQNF
# [5] = target: Protein kinase C beta type (Homo sapiens) (UniProt P05771); experiment: Inhibition of PKCb conserved Lys2 (DLKLDNVMLDSEGHIK) in human PBMC at 1 uM
# Sequence of Protein kinase C beta type (Homo sapiens) (P05771 2-671 limits assumed): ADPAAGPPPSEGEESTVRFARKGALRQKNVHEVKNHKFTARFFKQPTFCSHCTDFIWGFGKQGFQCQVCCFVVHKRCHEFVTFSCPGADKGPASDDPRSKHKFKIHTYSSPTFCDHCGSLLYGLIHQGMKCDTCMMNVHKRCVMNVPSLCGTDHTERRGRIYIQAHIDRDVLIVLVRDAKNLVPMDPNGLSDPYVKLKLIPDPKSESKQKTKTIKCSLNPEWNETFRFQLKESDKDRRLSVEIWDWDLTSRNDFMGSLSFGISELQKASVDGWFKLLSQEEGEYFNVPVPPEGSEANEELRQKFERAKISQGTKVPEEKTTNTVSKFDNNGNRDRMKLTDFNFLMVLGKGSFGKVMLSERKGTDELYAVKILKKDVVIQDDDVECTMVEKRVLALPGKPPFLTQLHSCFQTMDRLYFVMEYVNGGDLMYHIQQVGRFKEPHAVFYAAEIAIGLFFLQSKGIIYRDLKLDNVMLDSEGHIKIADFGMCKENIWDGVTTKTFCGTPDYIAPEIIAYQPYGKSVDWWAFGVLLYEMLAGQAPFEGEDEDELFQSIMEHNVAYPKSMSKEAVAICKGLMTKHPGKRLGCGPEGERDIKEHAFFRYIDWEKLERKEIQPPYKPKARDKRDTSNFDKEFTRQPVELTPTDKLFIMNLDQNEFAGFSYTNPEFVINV
# [6] = target: Ribosomal protein S6 kinase alpha-3 (Homo sapiens) (UniProt P51812); experiment: Inhibition of RSK2 domain1 activation Loop (LTDFGLSKESIDHEKK) in human PBMC at 0.1 uM
# Sequence of Ribosomal protein S6 kinase alpha-3 (Homo sapiens) (P51812 whole entry, the tested form may be a part): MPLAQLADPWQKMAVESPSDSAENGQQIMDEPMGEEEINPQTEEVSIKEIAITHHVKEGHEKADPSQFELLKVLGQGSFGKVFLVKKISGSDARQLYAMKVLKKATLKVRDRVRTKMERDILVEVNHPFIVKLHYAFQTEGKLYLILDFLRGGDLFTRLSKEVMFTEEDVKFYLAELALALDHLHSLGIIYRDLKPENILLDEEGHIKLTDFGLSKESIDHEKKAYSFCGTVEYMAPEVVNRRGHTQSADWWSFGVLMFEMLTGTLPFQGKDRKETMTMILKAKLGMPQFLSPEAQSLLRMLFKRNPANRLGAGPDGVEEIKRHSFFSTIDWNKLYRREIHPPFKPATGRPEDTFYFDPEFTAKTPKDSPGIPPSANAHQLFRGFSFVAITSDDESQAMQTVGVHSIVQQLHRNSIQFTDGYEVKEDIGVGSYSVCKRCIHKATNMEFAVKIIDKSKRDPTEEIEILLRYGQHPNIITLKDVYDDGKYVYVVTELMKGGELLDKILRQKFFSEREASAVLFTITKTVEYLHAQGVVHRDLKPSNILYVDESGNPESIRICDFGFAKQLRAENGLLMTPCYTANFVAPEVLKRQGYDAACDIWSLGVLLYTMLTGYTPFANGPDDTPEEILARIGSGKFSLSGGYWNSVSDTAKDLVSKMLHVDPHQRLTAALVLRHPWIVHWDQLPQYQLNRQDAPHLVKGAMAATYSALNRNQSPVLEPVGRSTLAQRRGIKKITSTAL
# MDR1 = experiment: Apparent permeability in MDCK cells harboring MDR1; format: ADME, cell-based, Canis lupus familiaris; settings: dog
# [7] = target: Calcium/calmodulin-dependent protein kinase type II subunit gamma (Homo sapiens) (UniProt Q13555); experiment: Inhibition of CaMK2g labeling at conserved Lys2 (DLKPENLLLASK) in human PBMC at 0.1 uM
# Sequence of Calcium/calmodulin-dependent protein kinase type II subunit gamma (Homo sapiens) (Q13555 whole entry, the tested form may be a part): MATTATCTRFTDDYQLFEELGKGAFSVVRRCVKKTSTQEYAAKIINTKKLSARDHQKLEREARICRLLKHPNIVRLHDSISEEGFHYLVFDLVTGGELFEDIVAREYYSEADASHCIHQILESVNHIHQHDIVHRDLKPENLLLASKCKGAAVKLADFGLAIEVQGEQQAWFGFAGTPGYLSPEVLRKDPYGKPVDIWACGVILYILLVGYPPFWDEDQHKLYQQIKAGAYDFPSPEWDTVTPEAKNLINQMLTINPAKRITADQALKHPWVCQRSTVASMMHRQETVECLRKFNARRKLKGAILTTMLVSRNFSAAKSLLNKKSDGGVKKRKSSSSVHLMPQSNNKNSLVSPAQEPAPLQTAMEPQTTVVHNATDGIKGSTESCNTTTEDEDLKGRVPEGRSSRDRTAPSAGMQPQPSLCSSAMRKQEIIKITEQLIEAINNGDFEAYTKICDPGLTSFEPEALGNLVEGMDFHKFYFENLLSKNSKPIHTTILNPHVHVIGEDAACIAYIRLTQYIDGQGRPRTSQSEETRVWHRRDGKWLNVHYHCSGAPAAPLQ
# [8] = target: Ribosomal protein S6 kinase delta-1 (Homo sapiens) (UniProt Q96S38); experiment: Inhibition of RSKL1 domain1 Protein Kinase Domain (VLGVIDKVLLVMDTR) in human PBMC at 1 uM
# Sequence of Ribosomal protein S6 kinase delta-1 (Homo sapiens) (Q96S38 whole entry, the tested form may be a part): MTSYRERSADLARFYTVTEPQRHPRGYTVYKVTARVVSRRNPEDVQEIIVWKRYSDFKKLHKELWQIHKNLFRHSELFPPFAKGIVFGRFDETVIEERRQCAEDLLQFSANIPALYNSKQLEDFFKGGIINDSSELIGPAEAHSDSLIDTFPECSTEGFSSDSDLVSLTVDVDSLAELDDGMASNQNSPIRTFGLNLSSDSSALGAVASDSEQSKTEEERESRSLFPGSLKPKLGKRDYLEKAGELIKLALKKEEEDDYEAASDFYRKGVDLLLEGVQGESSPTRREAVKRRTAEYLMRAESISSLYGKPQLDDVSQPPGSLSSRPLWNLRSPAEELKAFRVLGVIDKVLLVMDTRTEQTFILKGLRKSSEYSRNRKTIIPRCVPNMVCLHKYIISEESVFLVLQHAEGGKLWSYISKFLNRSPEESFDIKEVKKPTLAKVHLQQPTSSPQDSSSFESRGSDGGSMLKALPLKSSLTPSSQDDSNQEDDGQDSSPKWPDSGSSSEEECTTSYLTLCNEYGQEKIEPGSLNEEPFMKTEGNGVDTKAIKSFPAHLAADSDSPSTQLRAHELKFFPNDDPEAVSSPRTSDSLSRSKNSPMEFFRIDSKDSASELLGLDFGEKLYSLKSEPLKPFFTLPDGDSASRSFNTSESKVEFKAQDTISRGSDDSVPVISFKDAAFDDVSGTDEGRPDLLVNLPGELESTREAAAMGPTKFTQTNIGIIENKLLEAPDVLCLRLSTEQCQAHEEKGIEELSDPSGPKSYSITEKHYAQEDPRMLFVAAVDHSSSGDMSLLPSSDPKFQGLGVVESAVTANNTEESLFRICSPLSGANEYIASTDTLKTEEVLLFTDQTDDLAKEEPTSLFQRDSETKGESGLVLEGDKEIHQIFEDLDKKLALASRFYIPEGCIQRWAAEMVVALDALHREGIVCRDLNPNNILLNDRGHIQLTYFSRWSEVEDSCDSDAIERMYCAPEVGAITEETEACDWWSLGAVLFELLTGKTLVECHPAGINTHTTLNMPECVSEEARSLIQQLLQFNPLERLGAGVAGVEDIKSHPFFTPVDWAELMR
# [9] = target: 5'-AMP-activated protein kinase catalytic subunit alpha-1 (Homo sapiens) (UniProt Q13131); experiment: Inhibition of AMPKa1 labeling at conserved Lys1 (VAVKILNR) in human PBMC at 0.1 uM
# Sequence of 5'-AMP-activated protein kinase catalytic subunit alpha-1 (Homo sapiens) (Q13131 whole entry, looked up): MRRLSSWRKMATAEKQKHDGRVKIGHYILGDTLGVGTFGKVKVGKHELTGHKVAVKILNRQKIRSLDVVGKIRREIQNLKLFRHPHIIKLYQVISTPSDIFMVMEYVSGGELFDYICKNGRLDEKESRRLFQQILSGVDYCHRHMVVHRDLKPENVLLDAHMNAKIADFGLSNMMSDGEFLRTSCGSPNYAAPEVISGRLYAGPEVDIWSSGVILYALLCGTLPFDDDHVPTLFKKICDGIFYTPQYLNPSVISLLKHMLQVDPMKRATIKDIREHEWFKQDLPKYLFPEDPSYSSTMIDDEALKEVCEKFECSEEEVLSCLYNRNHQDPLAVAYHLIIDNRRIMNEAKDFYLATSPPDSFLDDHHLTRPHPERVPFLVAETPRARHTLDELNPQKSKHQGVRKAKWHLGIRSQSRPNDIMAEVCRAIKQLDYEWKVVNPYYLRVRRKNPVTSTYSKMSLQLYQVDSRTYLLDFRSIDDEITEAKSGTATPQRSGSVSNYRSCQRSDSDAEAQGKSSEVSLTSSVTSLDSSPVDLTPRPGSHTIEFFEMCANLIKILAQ
# [10] = target: Dual specificity mitogen-activated protein kinase kinase 1 (Homo sapiens) (UniProt Q02750); experiment: Inhibition of MAP2K1 conserved Lys2 (IMHRDVKPSNILVNSR) in human PBMC at 0.1 uM
# Sequence of Dual specificity mitogen-activated protein kinase kinase 1 (Homo sapiens) (Q02750 whole entry): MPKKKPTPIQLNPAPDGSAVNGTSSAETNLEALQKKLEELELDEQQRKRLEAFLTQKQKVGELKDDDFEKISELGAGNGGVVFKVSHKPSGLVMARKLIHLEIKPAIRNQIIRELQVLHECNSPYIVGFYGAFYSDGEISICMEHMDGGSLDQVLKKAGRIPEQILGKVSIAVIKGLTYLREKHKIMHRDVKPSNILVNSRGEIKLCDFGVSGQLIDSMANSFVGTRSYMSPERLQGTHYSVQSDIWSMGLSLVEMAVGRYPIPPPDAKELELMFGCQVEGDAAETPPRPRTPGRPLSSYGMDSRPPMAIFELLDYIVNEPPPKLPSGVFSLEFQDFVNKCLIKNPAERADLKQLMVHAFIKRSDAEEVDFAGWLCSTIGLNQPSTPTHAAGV
smiles,measurement,setting,value
CC(C)n1cc(-c2cc(-c3ccc(CN4CCOCC4)cc3)cnc2N)nn1,inhibition,[1],20.3%
same,inhibition,[2],14.4%
same,inhibition,[3],-3.3%
same,inhibition,[4],0%
same,inhibition,[5],-7.4%
same,inhibition,[6],7.7%
same,Papp,MDR1,26.3 ×10⁻⁶ cm/s
same,inhibition,[7],-7.5%
same,inhibition,[8],4.7%
same,inhibition,[9],7.7%
same,inhibition,[10],-5.6%
